In patent publication US6838481B1, “Skin whitener” (LG Household & Health Care Ltd., priority 1998, dated 2005):

Experiments:
[1] = system: B-16 mouse melanoma cells; test: Melanin formation inhibiting effects of EL-1 at the cellular level; format: cell-based; conditions: for Melanin formation amount: cultured 3 days, repetition number = 3; for Inhibition ratio (%): melanin formation relative to control; for Cell toxicity: final conc. 10 μg/ml
Method: The whitening effect was tested at the cellular level by adding EL-1 obtained from the above EXAMPLES 1 to 7 to a cultured solution of B-16 mouse melanoma cells (Lotan R., Lotan D. Cancer Res. 40:3345-3350, 1980) as follows.
The EL-1 obtained in EXAMPLES 1 to 7 was added to a culture solution of B-16 mouse melanoma cells so that the final concentrations become 1 μg/ml, 5 μg/ml and 50 μg/ml respectively, and they were cultured for 3 days. After trypsin was added to the cells and the solution was removed from the culture container and centrifuged, melanin was extracted. 1 ml of sodium hydroxide solution (1 N concentration) was added to the extracted melanin and boiled for about 10 minutes to dissolve the melanin. The test was carried out in a way whereby the formed melanin amount was represented in absorbance per unit cell number, expressed as A400/10^6 cells by measuring the absorbance at 400 nm. After repeating this test 3 times, the melanin formation amount relative to the control was calculated as an inhibition ratio (%) using the average values.

[2] = system: B-16 mouse melanoma cells; test: as above; format: cell-based; conditions: concentration of 50 μg/ml

| Compound | Melanin formation amount ([1]; final conc. 1 μg/ml) [A400/10^6 cells] | Inhibition ratio (%) ([1]; final conc. 1 μg/ml) | Cell toxicity [1] | Cell toxicity ([1]; listed as hydroquinone) | Cell toxicity [2] | Melanin formation amount ([1]; final conc. 5 μg/ml) [A400/10^6 cells] | Inhibition ratio (%) ([1]; final conc. 5 μg/ml) | Melanin formation amount ([1]; final conc. 50 μg/ml) [A400/10^6 cells] | Inhibition ratio (%) ([1]; final conc. 50 μg/ml) | Melanin synthesis inhibiting effect ([1]; mouse B-16 melanoma cells treated) |
| --- | --- | --- | --- | --- | --- | --- | --- | --- | --- | --- |
| Oc1ccc(O)cc1 [Hydroquinone, reference compound] | 0.025 ± 0.002 | 43 | Cell extinction | high cell toxicity |  |  |  |  |  |  |
| C=C1CCC2C(/C=C(\C)C(=O)C3(OC(C)=O)CC(C)C(OC(=O)c4ccccc4)C3C1OC(C)=O)C2(C)C (stereo not drawn) [EL-1, 5,15-diacetyl-3-benzoyllathyrol] | 0.032 ± 0.001 | 28 |  |  | does not show cell toxicity | 0.019 ± 0.003 | 57 | 0.007 ± 0.001 | 85 | very strong melanin synthesis inhibiting effect |
